Results reported in paper PMC11091072, “Targeting bacterial nickel transport with aspergillomarasmine A suppresses virulence-associated Ni-dependent enzymes” (Nature Communications, 2024).
Several values for one entry are separate records, joined by “and”; a condition that tells them apart may be missing. Identical values can stand only once. Like-named read-outs stand apart in the source and are kept apart here.

Columns and labels:
[1] = system: K. pneumoniae urease activity (whole cell); experiment: microbe, parasite or virus in culture; assay type: cell-based, Klebsiella pneumoniae ATCC 33495; conditions: artificial urine; for K. pneumoniae urease-dependent pH change (pH): 37 °C
HEK293 cells = experiment: HEK293 cytotoxicity assay (Cell Titer Glo 2.0)
[2] = system: cellular Ni and Zn content of K. pneumoniae; experiment: Cellular metal analysis by ICP-MS (60Ni, 66Zn); assay type: cell-based, Klebsiella pneumoniae
Description: The cellular Zn^2+ and Ni^2+ content of K. pneumoniae was carried out according to the method described by Maunders et al.[66] with some modifications. An overnight culture of K. pneumoniae was diluted 1/200 in LB medium (5 mL) and was either untreated or treated with 0.2 mM AMA or Zn-AMA. The cells were grown for 16 h at 37 °C, harvested by centrifugation, and washed twice with PBS containing 5 mM EDTA and twice with ultra-pure water. The cell pellet was subsequently digested in 0.25 mL 65% HNO3 at 80 °C for 30 minutes in borosilicate glass tubes using a water bath. The samples were diluted to 2% HNO3 and filtered through a 0.45 μm syringe filter. ^60Ni and ^66Zn were quantified using a Thermo iCAP Q ICP-MS.

[3] = system: struvite crystallization in K. pneumoniae cultures; experiment: Struvite crystal nucleation in artificial urine cultures; assay type: cell-based, Klebsiella pneumoniae
Source text: A The metal complexed structure, selectivity, and affinity of AMA. The constituents of AMA are labeled L-aspartate (L-Asp) and 2,3-diaminopropionic acid (APA). B Dose-response urease inhibition assays in K. pneumoniae. […] C Dose-response effect of AMA and Zn-AMA on the nucleation of struvite crystals in K. pneumoniae cultures grown in artificial urine. Crystals were examined microscopically in 96-well plates and visually quantified. […] The data represent the representative mean of two replicates. D Quantification of planktonic growth and crystal violet-stained biofilms of K. pneumoniae grown in artificial urine and varying concentrations of Zn-AMA. […] Data represent mean ± s.d. of four technical replicates. E ICP-MS quantification of cellular ^60Ni and ^66Zn content in K. pneumoniae untreated or treated with 200 μM AMA, or Zn-AMA. […] Whole-cell hydrogenase assays were performed by adding benzyl viologen (BV) at a final concentration of 1 mg/mL and monitoring its reduction at an absorbance of 630 nm. Data represent the mean of two technical replicates.
FIG S5 Microscopic detection of struvite crystals grown in artificial urine cultures of K. pneumoniae. Top row, the concentration-dependent effect of AMA on struvite formation. Bottom row, the concentration-dependent effect of Zn-AMA on struvite formation.
Bacteria were grown in 96 well flat-bottom plates for 24h at 37 °C. Brightfield micrographs were taken with a BioTek Cytation cell imaging reader at 4x magnification. Four images were taken per well and were digitally stitched to generate whole-well images. […]

S. aureus = assay type: cell-based, Staphylococcus aureus; conditions: 200 μM, 24 h
urease = biological target: T1, urease (Klebsiella pneumoniae subsp. pneumoniae, UniProt A6TE40+A6TE41+A6TE42); experiment: Urease activity in cell-free extracts (NH3 release, indophenol-hypochlorite); assay type: biochemical
T1 construct: endogenous in cells; host or cells: Klebsiella pneumoniae (ATCC 33495), sonicated and cleared lysate
T1 sequence (A6TE41 whole entry): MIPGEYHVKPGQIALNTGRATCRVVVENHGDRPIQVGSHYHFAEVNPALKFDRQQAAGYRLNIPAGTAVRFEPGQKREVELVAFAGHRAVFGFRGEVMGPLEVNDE
T1 sequence (A6TE40 whole entry): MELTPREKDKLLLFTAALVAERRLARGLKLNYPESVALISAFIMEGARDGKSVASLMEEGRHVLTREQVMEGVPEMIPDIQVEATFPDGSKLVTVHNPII
T1 sequence (A6TE42 whole entry): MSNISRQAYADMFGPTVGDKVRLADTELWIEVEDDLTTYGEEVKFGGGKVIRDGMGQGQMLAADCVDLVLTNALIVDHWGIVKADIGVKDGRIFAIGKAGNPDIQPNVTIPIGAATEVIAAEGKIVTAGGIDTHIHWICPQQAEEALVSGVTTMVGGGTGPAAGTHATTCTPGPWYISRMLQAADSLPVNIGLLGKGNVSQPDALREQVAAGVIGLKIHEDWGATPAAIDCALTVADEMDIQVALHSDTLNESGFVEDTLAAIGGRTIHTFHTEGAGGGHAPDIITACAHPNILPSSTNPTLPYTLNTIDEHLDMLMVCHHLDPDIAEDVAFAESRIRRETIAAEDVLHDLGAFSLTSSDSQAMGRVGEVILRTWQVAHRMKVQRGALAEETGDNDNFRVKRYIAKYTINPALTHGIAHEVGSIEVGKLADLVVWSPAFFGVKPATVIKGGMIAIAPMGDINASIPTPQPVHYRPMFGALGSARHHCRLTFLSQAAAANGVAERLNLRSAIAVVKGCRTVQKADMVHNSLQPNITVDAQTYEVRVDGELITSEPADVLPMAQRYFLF
Description: The cells were subsequently lysed by sonication, and cell debris was removed with centrifugation (20,000 × g, 10 min). […] Liberated NH3 was quantified using the indophenol-hypocholorite reaction as previously described. The total amount of protein was quantified by Bradford assay using bovine serum albumin as standard. Each assay was performed in duplicate wells.
FIG S7 Evaluation of Zn-AMA as a direct inhibitor of urease. A) Checkerboard analysis of Zn-AMA and AHA on urease activity of K. […]
Dose- […]
response curves of fluorofamide, Zn-AMA, and AMA inhibiting the urease-catalyzed release of NH3 quantified with indophenol hypochlorite. The rates of NH3 production were measured over 20 min and were normalized to total protein concentration. Experiments were performed in duplicate. Individual replicates are shown as colored circles.

[4] = system: S. aureus urease activity (whole cell); assay type: cell-based, Staphylococcus aureus; conditions: artificial urine, 24 h; for Staphylococcus aureus urease-dependent pH change (pH): 37 °C
K. pneumoniae [5] = assay type: cell-based, Klebsiella pneumoniae; conditions: 200 μM, 24 h exposure
K. pneumoniae [6] = assay type: cell-based, Klebsiella pneumoniae
[7] = K. pneumoniae treated with 200 μM

Compound: N[C@@H](CN[C@@H](CN[C@@H](CC(=O)O)C(=O)O)C(=O)O)C(=O)O.[Zn+2] [Zn-AMA]
- K. pneumoniae urease-dependent pH change (pH) ([1]; 0.19 μM, 24 h): 8.14 and 8.10
- K. pneumoniae urease-dependent pH change (pH) ([1]; 0.39 μM, 24 h): 8.08 and 8.00
- K. pneumoniae urease-dependent pH change (pH) ([1]; 0.78 μM, 24 h): 7.84 and 7.81
- K. pneumoniae urease-dependent pH change (pH) ([1]; 1.56 μM, 24 h): 7.60 and 7.55
- K. pneumoniae urease-dependent pH change (pH) ([1]; 3.12 μM, 24 h): 7.41 and 7.27
- K. pneumoniae urease-dependent pH change (pH) ([1]; 6.25 μM, 24 h): 7.11
- K. pneumoniae urease-dependent pH change (pH) ([1]; 12.5 μM, 24 h): 6.87 and 6.85
- K. pneumoniae urease-dependent pH change (pH) ([1]; 25 μM, 24 h): 6.76 and 6.71
- K. pneumoniae urease-dependent pH change (pH) ([1]; 50 μM, 24 h): 6.66 and 6.60
- K. pneumoniae urease-dependent pH change (pH) ([1]; 100 μM, 24 h): 6.65 and 6.54
- K. pneumoniae urease-dependent pH change (pH) ([1]; 200 μM, 24 h): 6.80 and 6.56
- concentration that significantly suppressed urease activity ([1]; K. pneumoniae, 24 h): 50 µM
- EC50 ([1]; Klebsiella pneumoniae, K. pneumoniae, read-out: EC50, half-maximal effective concentration required to suppress urease-dependent pH change): 2.5 ± 0.4 µM
- cytotoxicity toward HEK293 (HEK293 cells; 48 h, up to 512 μg/mL (~1.4 mM)): no significant cytotoxicity
- IC50 (HEK293 cells; Homo sapiens, HEK293, 48 h, read-out: IC50 (HEK293 viability)): > 512 µg/mL
- HEK 293T cytotoxicity assay raw signal (HEK293 cells; Zn-AMA 0.5 μg/mL): 787289 and 688554 and 688484
- HEK 293T cytotoxicity assay raw signal (HEK293 cells; Zn-AMA 1 μg/mL): 778862 and 676746 and 680280
- HEK 293T cytotoxicity assay raw signal (HEK293 cells; Zn-AMA 2 μg/mL): 730695 and 661495 and 777158
- HEK 293T cytotoxicity assay raw signal (HEK293 cells; Zn-AMA 4 μg/mL): 783723 and 676080 and 794996
- HEK 293T cytotoxicity assay raw signal (HEK293 cells; Zn-AMA 8 μg/mL): 742661 and 700936 and 674120
- HEK 293T cytotoxicity assay raw signal (HEK293 cells; Zn-AMA 16 μg/mL): 815769 and 690170 and 672316
- HEK 293T cytotoxicity assay raw signal (HEK293 cells; Zn-AMA 32 μg/mL): 682089 and 773769 and 699603
- HEK 293T cytotoxicity assay raw signal (HEK293 cells; Zn-AMA 64 μg/mL): 773018 and 718789 and 808685
- HEK 293T cytotoxicity assay raw signal (HEK293 cells; Zn-AMA 128 μg/mL): 636555 and 716494 and 658016
- HEK 293T cytotoxicity assay raw signal (HEK293 cells; Zn-AMA 256 μg/mL): 744022 and 626132 and 622056
- HEK 293T cytotoxicity assay raw signal (HEK293 cells; Zn-AMA 512 μg/mL): 618617 and 604431 and 563165
- effect on intracellular Ni^2+ levels ([2]; 200 μM, ICP-MS): reduced intracellular Ni^2+ levels
- effect on intracellular Zn^2+ levels ([2]; 200 μM, ICP-MS): without affecting Zn^2+ levels
- ICP-MS cellular Ni [2, 7]: 2.15 µM and 2.37 µM
- ICP-MS cellular Zn [2, 7]: 0.81 µM and 0.97 µM
- Struvite crystal quantification (count) ([3]; 3.12 μM): 25 and 43
- Struvite crystal quantification (count) ([3]; 6.25 μM): 42 and 62
- Struvite crystal quantification (count) ([3]; 12 μM): 48 and 82
- Struvite crystal quantification (count) ([3]; 50 μM): 0
- Struvite crystal quantification (count) ([3]; 100 μM): 0
- Struvite crystal quantification (count) ([3]; 200 μM): 0
- effect on struvite crystals ([3]; K. pneumoniae, artificial urine): robustly prevented the appearance of struvite crystals
- bacterial viability (spot dilutions) (S. aureus): not lethal to bacteria
- Specific activity (cell-free indophenol urease assay) (urease; Zn-AMA 0.007813 mM): 45.30 nmol/min/mg and 43.25 nmol/min/mg
- Specific activity (cell-free indophenol urease assay) (urease; Zn-AMA 0.015625 mM): 43.59 nmol/min/mg and 42.05 nmol/min/mg
- Specific activity (cell-free indophenol urease assay) (urease; Zn-AMA 0.03125 mM): 42.91 nmol/min/mg and 40.51 nmol/min/mg
- Specific activity (cell-free indophenol urease assay) (urease; Zn-AMA 0.0625 mM): 42.56 nmol/min/mg and 39.66 nmol/min/mg
- Specific activity (cell-free indophenol urease assay) (urease; Zn-AMA 0.125 mM): 42.39 nmol/min/mg and 39.32 nmol/min/mg
- Specific activity (cell-free indophenol urease assay) (urease; Zn-AMA 0.25 mM): 39.32 nmol/min/mg and 37.78 nmol/min/mg
- Specific activity (cell-free indophenol urease assay) (urease; Zn-AMA 0.5 mM): 36.07 nmol/min/mg and 34.19 nmol/min/mg
- Specific activity (cell-free indophenol urease assay) (urease; Zn-AMA 1 mM): 31.28 nmol/min/mg and 28.03 nmol/min/mg
- direct inhibition of urease (urease; cell-free extract): excluded the direct inhibition of urease
- Staphylococcus aureus urease-dependent pH change (pH) ([4]; 0.19 μM): 7.24 and 7.25
- Staphylococcus aureus urease-dependent pH change (pH) ([4]; 0.39 μM): 7.28 and 7.12
- Staphylococcus aureus urease-dependent pH change (pH) ([4]; 0.78 μM): 6.95 and 7.00
- Staphylococcus aureus urease-dependent pH change (pH) ([4]; 1.56 μM): 6.76 and 6.81
- Staphylococcus aureus urease-dependent pH change (pH) ([4]; 3.12 μM): 6.56 and 6.59
- Staphylococcus aureus urease-dependent pH change (pH) ([4]; 6.25 μM): 6.45 and 6.49
- Staphylococcus aureus urease-dependent pH change (pH) ([4]; 12.5 μM): 6.41 and 6.45
- Staphylococcus aureus urease-dependent pH change (pH) ([4]; 25 μM): 6.38 and 6.40
- Staphylococcus aureus urease-dependent pH change (pH) ([4]; 50 μM): 6.39 and 6.40
- Staphylococcus aureus urease-dependent pH change (pH) ([4]; 100 μM): 6.37 and 6.40
- Staphylococcus aureus urease-dependent pH change (pH) ([4]; 200 μM): 6.41 and 6.39
- effect on urease activity ([4]; S. aureus): inhibited urease activity similarly
- bacterial viability (spot dilutions) (K. pneumoniae [5]): do not affect bacterial viability
- Growth curve (culture density) (K. pneumoniae [6]): 0.101 and 0.102 and 0.103 and 0.104 and 0.105 and 0.107 and 0.106 and 0.108
- Growth curve (culture density) (K. pneumoniae [6]; 15.15 h, 50 μM): 0.107 and 0.104
- Growth curve (culture density) (K. pneumoniae [6]; 16.15 h, 50 μM): 0.107 and 0.103
- Growth curve (culture density) (K. pneumoniae [6]; 17.15 h, 50 μM): 0.107 and 0.102
- growth with urea as sole nitrogen source (K. pneumoniae [6]; Chelex-treated nitrogen-limited medium): did not
- growth with urea as sole nitrogen source (K. pneumoniae [6]; medium supplemented with 0.25 μM NiCl): inhibited the growth of K. pneumoniae
